This note sets out measurements from ChEMBL document CHEMBL1141946, “Inhibitors of phenylethanolamine N-methyltransferase devoid of alpha2-adrenoceptor affinity” (Bioorg Med Chem Lett, 2005).

The structures appear in SMILES notation.

The target in this test is T1, Adrenergic receptor alpha-2 (Homo sapiens, UniProt P08913+P18825+P18089).
T1 sequence (P08913 whole entry): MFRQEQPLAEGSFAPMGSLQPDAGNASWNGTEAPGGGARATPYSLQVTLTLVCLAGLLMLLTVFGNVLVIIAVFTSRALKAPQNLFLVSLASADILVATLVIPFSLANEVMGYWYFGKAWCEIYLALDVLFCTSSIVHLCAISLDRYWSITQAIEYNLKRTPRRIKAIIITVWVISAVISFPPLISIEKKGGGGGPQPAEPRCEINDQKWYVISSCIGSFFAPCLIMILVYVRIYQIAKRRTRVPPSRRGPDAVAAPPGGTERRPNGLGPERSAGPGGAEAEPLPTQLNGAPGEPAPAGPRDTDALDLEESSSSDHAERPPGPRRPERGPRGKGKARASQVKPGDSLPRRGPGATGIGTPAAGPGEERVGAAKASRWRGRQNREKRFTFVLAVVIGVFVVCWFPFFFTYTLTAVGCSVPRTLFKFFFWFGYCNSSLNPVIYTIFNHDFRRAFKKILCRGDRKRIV
T1 sequence (P18825 whole entry): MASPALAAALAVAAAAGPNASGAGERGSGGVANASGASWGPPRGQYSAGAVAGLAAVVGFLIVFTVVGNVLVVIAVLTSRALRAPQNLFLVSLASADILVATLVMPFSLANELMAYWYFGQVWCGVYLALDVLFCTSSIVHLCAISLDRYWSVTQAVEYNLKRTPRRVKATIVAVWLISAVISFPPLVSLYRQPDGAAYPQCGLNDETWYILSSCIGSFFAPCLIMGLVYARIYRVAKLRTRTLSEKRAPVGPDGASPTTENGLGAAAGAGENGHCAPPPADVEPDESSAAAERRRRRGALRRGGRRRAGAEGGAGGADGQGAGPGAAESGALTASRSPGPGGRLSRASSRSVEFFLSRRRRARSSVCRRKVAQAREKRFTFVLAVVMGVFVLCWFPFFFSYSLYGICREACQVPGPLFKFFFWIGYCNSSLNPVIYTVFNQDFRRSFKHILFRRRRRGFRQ
T1 sequence (P18089 whole entry): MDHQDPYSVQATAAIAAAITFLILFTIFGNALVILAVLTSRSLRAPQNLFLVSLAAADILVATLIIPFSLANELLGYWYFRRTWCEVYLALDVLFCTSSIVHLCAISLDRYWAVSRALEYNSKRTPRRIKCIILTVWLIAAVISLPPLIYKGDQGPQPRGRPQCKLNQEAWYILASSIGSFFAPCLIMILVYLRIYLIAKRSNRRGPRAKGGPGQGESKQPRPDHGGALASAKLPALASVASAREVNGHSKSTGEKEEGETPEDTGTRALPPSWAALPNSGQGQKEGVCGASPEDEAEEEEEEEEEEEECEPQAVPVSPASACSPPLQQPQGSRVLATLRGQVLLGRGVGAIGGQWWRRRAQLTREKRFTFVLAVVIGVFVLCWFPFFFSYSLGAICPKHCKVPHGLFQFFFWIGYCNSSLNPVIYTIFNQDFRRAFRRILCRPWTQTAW
The experiment in a line: Displacement of [3H]clonidine from Adrenergic alpha-2 receptor. It counts as protein assay. For orientation: Loss of bound radioactivity is the signal in a displacement assay; it reports binding, not function.

In general, Ki refers to the equilibrium dissociation constant of an inhibitor or competing ligand from its target. Turning to `NS(=O)(=O)c1ccc2c(c1)CNCC2`, the Ki (read-out: Ki) is 100 µM.

Take `CCC1Cc2ccc(Br)cc2CN1` (racemic): the Ki was determined as 1.2 µM.

Take `NS(=O)(=O)c1ccc2c(c1)CNC(C(F)(F)F)C2` (racemic): the Ki was > 1000 µM.

In turn, `Clc1ccc2c(c1Cl)CNCC2` displayed a Ki of 0.021 µM.

With `O=[N+]([O-])c1ccc2c(c1)CNC(C(F)(F)F)C2` (racemic), the Ki worked out at 1400 µM.

Consider `NS(=O)(=O)c1ccc2c(c1)CNC(CO)C2` (centres undefined), for which the inhibition constant Ki came to 1400 µM.

Take `Ic1ccc2c(c1)CNCC2`: the Ki came to 0.22 µM.

`FC(F)(F)C1Cc2ccccc2CN1` (centres undefined) registered a Ki of 400 µM.

Take `CC(C)C1Cc2ccc([N+](=O)[O-])cc2CN1` (racemic): the inhibition constant Ki was determined as 36 µM.

In turn, `CCC1Cc2ccc([N+](=O)[O-])cc2CN1` (racemic) had a Ki of 28 µM.

In the case of `CCNS(=O)(=O)c1ccc2c(c1)CNC(C(F)(F)F)C2` (racemic), the Ki was > 1000 µM.

As for `CS(=O)(=O)c1ccc2c(c1)CNC(C(F)(F)F)C2` (racemic), the Ki amounted to 3900 µM.

For `FC(F)(F)C1Cc2ccc(Cl)cc2CN1` (racemic), the Ki was > 1000 µM.

On to `FC(F)(F)C1Cc2ccc(I)cc2CN1` (racemic), for which the Ki is > 1000 µM.

On to `CC(C)C1Cc2ccc(Br)cc2CN1` (centres undefined), for which the Ki was determined as 3.9 µM.

Turning to `FC(F)(F)c1ccc2c(c1)CNC(C(F)(F)F)C2` (racemic), the Ki was > 1000 µM.

For `CC1Cc2ccc(Br)cc2CN1` (racemic), the Ki was 1.1 µM.

Take `N#Cc1ccc2c(c1)CNC(C(F)(F)F)C2` (racemic): the Ki is 2900 µM.

As for `FC(F)(F)C1Cc2ccc(Br)cc2CN1` (racemic), the Ki is > 1000 µM.
